biological target: T1, oxytocin receptor (CHO-OTR/NFAT-β-Lactamase cells) (Homo sapiens, UniProt P30559); experiment: Oxytocin Receptor Beta-Lactamase Assay; format: cell-based; settings: oxytocin stimulation 4 hours, read-out: oxytocin antagonist activity, expressed as a Ki value
T1 construct: expressed in transfected cells; host or cells: CHO (CHO-OTR line carrying an NFAT-β-lactamase reporter)
T1 sequence (P30559 1-389): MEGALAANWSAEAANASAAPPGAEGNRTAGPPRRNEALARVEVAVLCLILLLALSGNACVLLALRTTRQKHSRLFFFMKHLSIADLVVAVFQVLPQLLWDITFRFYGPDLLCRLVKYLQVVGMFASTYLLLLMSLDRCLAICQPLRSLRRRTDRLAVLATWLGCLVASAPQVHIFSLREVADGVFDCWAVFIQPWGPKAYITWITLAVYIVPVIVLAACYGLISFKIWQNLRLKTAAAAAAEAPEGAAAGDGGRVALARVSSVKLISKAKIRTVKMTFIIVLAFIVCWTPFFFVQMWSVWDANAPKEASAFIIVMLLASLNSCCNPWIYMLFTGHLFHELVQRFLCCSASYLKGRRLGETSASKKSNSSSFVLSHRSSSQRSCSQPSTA
Experimental: A suitable assay for determining the oxytocin antagonist activity of a compound is detailed herein below.
Oxytocin Receptor Beta-Lactamase Assay
Cells used are CHO-OTR/NFAT-β-Lactamase. The NFAT-β-lactamase expression construct was transfected into the CHO-OTR cell line and clonal populations were isolated via fluorescence activated cell sorting (FACS). An appropriate clone was selected to develop the assay.
Recovery of cells—A vial of frozen cells is thawed rapidly in 37° C. water bath and the cell suspension transferred into a T225 flask with 50 ml of fresh growth medium and then incubated at 37° C., 5% CO2 in an incubator until the cells adhered to the flask Replace media with 50 ml of fresh growth media the following day.
Culturing cells—CHO—OTR—NFAT-βLactamase cells were grown in growth medium. Cells were harvested when they reached 80-90% confluence removing the medium and washing with pre-warmed PBS. PBS was then removed and Trypsin/EDTA added (3 mls for T225 cm^2 flask) before incubating for 5 min in 37° C./5% CO2 incubator. When cells were detached, pre-warmed growth media was added (7 mls for T225 cm^2 flask) and the cells re-suspended and mixed gently by pipetting to achieve single cell suspension. […]
Cells grown at 80-90% confluence were harvested and counted. […]
Preparation of 1 ml of 6× Loading Buffer with Enhanced Loading Protocol (this requires scale-up according to number of plates to be screened) • 12 μl of solution A (1 mM CCF4-AM in Dry DMSO) was added to 60 μl of solution B (100 mg/ml Pluronic-F127 in DMSO+0.1% Acetic Acid) and vortexed. • The resulting solution was added to 925 μl of solution C (24% w/w PEG400, 18% TR40 v/v in water). • 75 μl of solution D was added (200 mM probenecid in 200 mM NaOH). • 10 μl of 6× Loading Buffer was added to all wells and incubated for 1.5 hrs-2 hrs at room temperature in the dark. • The plates were read using an LJL Analyst, Excitation 405 nm, Emission 450 nm and 530 nm, gain optimal, lagtime 0.40 μs integration, 4 flashes, bottom reading.

Ki | SMILES
12.9 nM | COc1ccc(-n2c(C)nnc2N2CCC3(CC2)COc2ccccc23)cn1 [Example 1, 1′-[4-(6-methoxypyridin-3-yl)-5-methyl-4H-1,2,4-triazol-3-yl]spiro[1-benzofuran-3,4′-piperidine]]
11.5 nM | COCc1nnc(N2CCC3(CC2)OCc2cc(F)ccc23)n1-c1ccc(OC)nc1 [Example 6, 5-fluoro-1′-[5-(methoxymethyl)-4-(6-methoxypyridin-3-yl)-4H-1,2,4-triazol-3-yl]-3H-spiro[2-benzofuran-1,4′-piperidine]]
10.2 nM | COCc1nnc(N2CCC3(CC2)OCc2ccccc23)n1-c1ccc(OC)nc1 [Example 17, 1′-[5-(methoxymethyl)-4-(6-methoxypyridin-3-yl)-4H-1,2,4-triazol-3-yl]-3H-spiro[2-benzofuran-1,4′-piperidine]]

From US20110092529A1, “1,2,4-Triazole Derivatives and Their Use as Oxytocin Antagonists” (Pfizer Inc., priority 2005, published 2011)
